Measured values published in the NIST ThermoML archive (doi:10.1021/je5009334).
Where “and” joins values, the source holds several entries; their conditions need not be identical. Equal entries are not always repeated. Numbers after ± are expanded uncertainties.

How the values were obtained:
[1] = 101 kPa, Liquid; for speed of sound: Sing-around technique in a fixed-path interferometer; for mass density: Vibrating tube method
[2] = xn = mol fraction of the nth substance listed; conditions: 101 kPa, Liquid; for speed of sound: Sing-around technique in a fixed-path interferometer; for mass density: Vibrating tube method

Compound	speed of sound ([1]; 298.15 K)	mass density ([1]; 298.15 K)	speed of sound ([1]; 303.15 K)	mass density ([1]; 303.15 K)	speed of sound ([1]; 308.15 K)	mass density ([1]; 308.15 K)	speed of sound ([1]; 313.15 K)	mass density ([1]; 313.15 K)	speed of sound ([1]; 318.15 K)	mass density ([1]; 318.15 K)	speed of sound ([1]; 323.15 K)	mass density ([1]; 323.15 K)	other results
OCc1ccccc1 [benzenemethanol]	1525.2 ± 1.3 m/s	1041.22 ± 0.26 kg/m3	1509.3 ± 1.3 m/s	1037.35 ± 0.26 kg/m3	1493.6 ± 1.3 m/s	1033.47 ± 0.26 kg/m3	1478 ± 1.3 m/s	1029.58 ± 0.26 kg/m3	1462.6 ± 1.3 m/s	1025.67 ± 0.25 kg/m3	1447.3 ± 1.3 m/s	1021.75 ± 0.25 kg/m3	
OCCc1ccccc1 [2-phenylethanol]	1526.1 ± 1.3 m/s	1016.14 ± 0.24 kg/m3	1510.5 ± 1.3 m/s	1012.39 ± 0.24 kg/m3	1494.7 ± 1.3 m/s	1008.61 ± 0.24 kg/m3	1479.2 ± 1.3 m/s	1004.75 ± 0.23 kg/m3	1463.2 ± 1.3 m/s	1000.93 ± 0.23 kg/m3	1447.7 ± 1.3 m/s	997.075 ± 0.23 kg/m3	
CCC(O)CO (stereo not drawn) [1,2-butanediol]	1452.6 ± 1.3 m/s	998.509 ± 0.23 kg/m3 and 998.492 ± 0.23 kg/m3	1438.2 ± 1.3 m/s and 1437.7 ± 1.3 m/s	994.744 ± 0.23 kg/m3 and 994.719 ± 0.23 kg/m3 and 994.759 ± 0.23 kg/m3	1423.6 ± 1.3 m/s	990.956 ± 0.23 kg/m3 and 990.971 ± 0.23 kg/m3	1409.2 ± 1.3 m/s and 1408.5 ± 1.3 m/s and 1409.1 ± 1.3 m/s	987.136 ± 0.23 kg/m3 and 987.113 ± 0.23 kg/m3 and 987.152 ± 0.23 kg/m3	1394.6 ± 1.2 m/s and 1394 ± 1.2 m/s and 1394.5 ± 1.2 m/s	983.284 ± 0.23 kg/m3 and 983.257 ± 0.23 kg/m3 and 983.297 ± 0.23 kg/m3	1380 ± 1.2 m/s and 1379.6 ± 1.2 m/s and 1379.9 ± 1.2 m/s	979.394 ± 0.23 kg/m3 and 979.371 ± 0.23 kg/m3 and 979.406 ± 0.23 kg/m3	
CC(O)CCO (stereo not drawn) [1,3-butanediol]	1527.8 ± 2.1 m/s	1001.82 ± 0.84 kg/m3	1514.1 ± 2.1 m/s	998.418 ± 0.84 kg/m3	1500.2 ± 2.1 m/s	994.987 ± 0.83 kg/m3	1486.3 ± 2.1 m/s	991.528 ± 0.83 kg/m3	1472.3 ± 2.1 m/s	988.035 ± 0.82 kg/m3	1458.3 ± 2.1 m/s	984.506 ± 0.82 kg/m3	
CCC(O)CO (stereo not drawn) [1,2-butanediol] + OCCc1ccccc1													speed of sound ([2]; 298.15 K, x2 = 0): 1452.6 ± 1.3 m/s; mass density ([2]; 298.15 K, x2 = 0): 998.509 ± 0.23 kg/m3; speed of sound ([2]; 303.15 K, x2 = 0): 1437.7 ± 1.3 m/s; mass density ([2]; 303.15 K, x2 = 0): 994.719 ± 0.23 kg/m3; speed of sound ([2]; 308.15 K, x2 = 0): 1423.6 ± 1.3 m/s; mass density ([2]; 308.15 K, x2 = 0): 990.971 ± 0.23 kg/m3; speed of sound ([2]; 313.15 K, x2 = 0): 1408.5 ± 1.3 m/s; mass density ([2]; 313.15 K, x2 = 0): 987.113 ± 0.23 kg/m3; speed of sound ([2]; 318.15 K, x2 = 0): 1394 ± 1.2 m/s; mass density ([2]; 318.15 K, x2 = 0): 983.257 ± 0.23 kg/m3; speed of sound ([2]; 323.15 K, x2 = 0): 1379.6 ± 1.2 m/s; mass density ([2]; 323.15 K, x2 = 0): 979.371 ± 0.23 kg/m3
CCC(C)O (stereo not drawn) [butan-2-ol]	1212.7 ± 1.2 m/s	803.103 ± 0.24 kg/m3	1194.5 ± 1.2 m/s	798.891 ± 0.24 kg/m3	1176.2 ± 1.2 m/s	794.588 ± 0.24 kg/m3	1157.9 ± 1.2 m/s	790.191 ± 0.24 kg/m3	1139.5 ± 1.2 m/s	785.692 ± 0.24 kg/m3	1121 ± 1.2 m/s	781.09 ± 0.24 kg/m3	
OCc1ccccc1 [benzenemethanol] + CCC(O)CO													speed of sound ([2]; 298.15 K, x1 = 1): 1525.2 ± 1.3 m/s; mass density ([2]; 298.15 K, x1 = 1): 1041.22 ± 0.26 kg/m3; speed of sound ([2]; 303.15 K, x1 = 1): 1509.3 ± 1.3 m/s; mass density ([2]; 303.15 K, x1 = 1): 1037.35 ± 0.26 kg/m3; speed of sound ([2]; 308.15 K, x1 = 1): 1493.6 ± 1.3 m/s; mass density ([2]; 308.15 K, x1 = 1): 1033.47 ± 0.26 kg/m3; speed of sound ([2]; 313.15 K, x1 = 1): 1478 ± 1.3 m/s; mass density ([2]; 313.15 K, x1 = 1): 1029.58 ± 0.26 kg/m3; speed of sound ([2]; 318.15 K, x1 = 1): 1462.6 ± 1.3 m/s; mass density ([2]; 318.15 K, x1 = 1): 1025.67 ± 0.25 kg/m3; speed of sound ([2]; 323.15 K, x1 = 1): 1447.3 ± 1.3 m/s; mass density ([2]; 323.15 K, x1 = 1): 1021.75 ± 0.25 kg/m3
CCC(C)O (stereo not drawn) [butan-2-ol] + CCC(O)CO													speed of sound ([2]; 298.15 K, x2 = 0): 1212.7 ± 1.2 m/s; mass density ([2]; 298.15 K, x2 = 0): 803.103 ± 0.24 kg/m3; speed of sound ([2]; 303.15 K, x2 = 0): 1194.5 ± 1.2 m/s; mass density ([2]; 303.15 K, x2 = 0): 798.891 ± 0.24 kg/m3; speed of sound ([2]; 308.15 K, x2 = 0): 1176.2 ± 1.2 m/s; mass density ([2]; 308.15 K, x2 = 0): 794.588 ± 0.24 kg/m3; speed of sound ([2]; 313.15 K, x2 = 0): 1157.9 ± 1.2 m/s; mass density ([2]; 313.15 K, x2 = 0): 790.191 ± 0.24 kg/m3; speed of sound ([2]; 318.15 K, x2 = 0): 1139.5 ± 1.2 m/s; mass density ([2]; 318.15 K, x2 = 0): 785.692 ± 0.24 kg/m3; speed of sound ([2]; 323.15 K, x2 = 0): 1121 ± 1.2 m/s; mass density ([2]; 323.15 K, x2 = 0): 781.09 ± 0.24 kg/m3
CCC(O)CO (stereo not drawn) [1,2-butanediol] + CC(O)CCO													speed of sound ([2]; 298.15 K, x1 = 1): 1452.6 ± 1.3 m/s; mass density ([2]; 298.15 K, x1 = 1): 998.509 ± 0.23 kg/m3; speed of sound ([2]; 303.15 K, x1 = 1): 1438.2 ± 1.3 m/s; mass density ([2]; 303.15 K, x1 = 1): 994.759 ± 0.23 kg/m3; speed of sound ([2]; 308.15 K, x1 = 1): 1423.6 ± 1.3 m/s; mass density ([2]; 308.15 K, x1 = 1): 990.971 ± 0.23 kg/m3; speed of sound ([2]; 313.15 K, x1 = 1): 1409.1 ± 1.3 m/s; mass density ([2]; 313.15 K, x1 = 1): 987.152 ± 0.23 kg/m3; speed of sound ([2]; 318.15 K, x1 = 1): 1394.5 ± 1.2 m/s; mass density ([2]; 318.15 K, x1 = 1): 983.297 ± 0.23 kg/m3; speed of sound ([2]; 323.15 K, x1 = 1): 1379.9 ± 1.2 m/s; mass density ([2]; 323.15 K, x1 = 1): 979.406 ± 0.23 kg/m3
